Measured values from the supplement of paper PMC10307832.

How the values were obtained:
Assay in all cases: relative viability (nuclei count vs DMSO), 5 days (fraction); higher = more cells survive
PAC-1 + Linsitinib = compound: C=CCc1cccc(/C=N/NC(=O)CN2CCN(Cc3ccccc3)CC2)c1O [PAC-1] + C[C@]1(O)C[C@@H](c2nc(-c3ccc4ccc(-c5ccccc5)nc4c3)c3c(N)nccn32)C1 [Linsitinib] (partner 1 µM)
In short: (§1)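 Lung cancer cell lines were seeded in 1536-well plates and dosed by pin tool the next day, with either a single drug or a fixed anchor-drug dose combined with five library-drug doses (not always all listed) spaced in √10 steps. Five days later, one step fixed the cells and stained their nuclei (final 0.05% Triton X-100, 1% formaldehyde, 1 ug/ml Hoechst), and nuclei were counted on 4× images. Relative viability is the nuclei count in treated wells divided by the count in vehicle wells, and each value is the median of duplicate plates.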

Ibrutinib + AZD7762 = compound: C=CC(=O)N1CCC[C@@H](n2nc(-c3ccc(Oc4ccccc4)cc3)c3c(N)ncnc32)C1 [Ibrutinib] + NC(=O)Nc1cc(-c2cccc(F)c2)sc1C(=O)N[C@H]1CCCNC1 [AZD7762] (partner 0.2 µM)
In short: as §1

Ibrutinib + Decitabine = compound: C=CC(=O)N1CCC[C@@H](n2nc(-c3ccc(Oc4ccccc4)cc3)c3c(N)ncnc32)C1 [Ibrutinib] + Nc1ncn([C@H]2C[C@H](O)[C@@H](CO)O2)c(=O)n1 [Decitabine] (partner 2 µM)
In short: as §1

Ibrutinib + Lapatinib = compound: C=CC(=O)N1CCC[C@@H](n2nc(-c3ccc(Oc4ccccc4)cc3)c3c(N)ncnc32)C1 [Ibrutinib] + CS(=O)(=O)CCNCc1ccc(-c2ccc3ncnc(Nc4ccc(OCc5cccc(F)c5)c(Cl)c4)c3c2)o1 [Lapatinib] (partner 2 µM)
In short: as §1

Cell Line | relative viability (PAC-1 + Linsitinib; first compound 0.02 µM) | relative viability (PAC-1 + Linsitinib; first compound 0.06325 µM) | relative viability (PAC-1 + Linsitinib; first compound 0.2 µM) | relative viability (PAC-1 + Linsitinib; first compound 2 µM) | relative viability (Ibrutinib + AZD7762; first compound 0.005 µM) | relative viability (Ibrutinib + AZD7762; first compound 0.01581 µM) | relative viability (Ibrutinib + AZD7762; first compound 0.05 µM) | relative viability (Ibrutinib + AZD7762; first compound 0.1581 µM) | relative viability (Ibrutinib + AZD7762; first compound 0.5 µM) | relative viability (Ibrutinib + Decitabine; first compound 0.005 µM) | relative viability (Ibrutinib + Decitabine; first compound 0.01581 µM) | relative viability (Ibrutinib + Decitabine; first compound 0.05 µM) | relative viability (Ibrutinib + Decitabine; first compound 0.1581 µM) | relative viability (Ibrutinib + Decitabine; first compound 0.5 µM) | relative viability (Ibrutinib + Lapatinib; first compound 0.005 µM) | relative viability (Ibrutinib + Lapatinib; first compound 0.01581 µM) | relative viability (Ibrutinib + Lapatinib; first compound 0.05 µM) | relative viability (Ibrutinib + Lapatinib; first compound 0.1581 µM) | relative viability (Ibrutinib + Lapatinib; first compound 0.5 µM)
HCC-827 | 0.981 | 0.966 | 0.932 | 0.942 | 0.157 | 0.193 | 0.323 | 0.167 | 0.12 | 0.275 | 0.345 | 0.262 | 0.287 | 0.195 | 0.169 | 0.206 | 0.208 | 0.174 | 0.173
HOP-62 | 1.01 | 0.927 | 0.977 | 0.939 | 0.53 | 0.662 | 0.651 | 0.867 | 0.626 | 0.242 | – | 0.22 | 0.249 | 0.231 | 1.04 | 0.922 | 1.08 | 1.13 | 1.12
IA-LM | 0.771 | 0.716 | 0.639 | 0.58 | – | – | – | – | – | – | – | – | – | – | 0.792 | 0.827 | 0.592 | 1.1 | 0.814
LC-2-ad | 0.849 | 0.825 | 0.782 | 0.78 | 0.905 | 0.801 | 0.861 | 0.786 | 0.599 | 0.842 | 0.776 | 0.774 | 0.814 | 0.765 | 0.938 | 0.577 | 0.972 | 0.911 | 0.968
LCLC-97TM1 | – | 0.196 | 0.196 | 0.165 | 0.276 | 0.326 | 0.317 | 0.268 | 0.219 | 0.251 | 0.226 | 0.236 | 0.205 | 0.208 | 0.69 | 0.913 | 1.41 | – | 0.931
LCLC-103H | 1.04 | 1.13 | 1.14 | 0.98 | 0.829 | 0.706 | 0.733 | 0.835 | 0.745 | 0.685 | 0.705 | 0.754 | 0.759 | 0.725 | – | – | – | – | –
LK-2 | 0.49 | 0.807 | 0.537 | 0.621 | 0.31 | 0.513 | 0.438 | 0.405 | 0.25 | 0.19 | 0.244 | 0.261 | 0.217 | 0.251 | 0.602 | 0.93 | 0.956 | 0.877 | 0.769
NCI-H441 | 0.519 | 0.571 | 0.496 | 0.564 | 1.18 | 1.15 | 1.22 | 1.28 | 0.952 | 0.255 | 0.241 | 0.231 | 0.211 | 0.25 | – | – | – | – | –
NCI-H520 | 0.944 | 0.92 | 1 | 0.861 | – | – | – | – | – | 0.447 | 0.512 | 0.497 | 0.606 | 0.498 | 0.788 | 0.789 | 0.934 | 0.907 | 0.78
NCI-H522 | – | – | – | – | 0.847 | 0.698 | 0.683 | 0.766 | 0.751 | 0.64 | 0.588 | 0.677 | 0.626 | 0.637 | – | – | – | – | –
NCI-H661 | 0.432 | 0.561 | 0.52 | 0.532 | – | – | – | – | – | 0.498 | 0.489 | 0.428 | 0.471 | 0.381 | 0.414 | 0.504 | 0.489 | 0.571 | 0.426
